Data from PubChem BioAssay (NCI).
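Method: 48-hour compound exposure of cells in 96-well plates, five concentrations, linear interpolation of endpoints. Here, GI50 denotes the concentration required for 50% inhibition of growth. TGI marks complete inhibition of growth.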

Experiments:
Experiment in all cases: NCI tumour cell line growth inhibition, 48 h
KM12 colon = test system: KM12 colon
HCT-15 colon = test system: HCT-15 colon
MCF7 breast = test system: MCF7 breast
K-562 leukemia = test system: K-562 leukemia
OVCAR-5 ovarian = test system: OVCAR-5 ovarian
SN12C renal = test system: SN12C renal
NCI-H226 lung = test system: NCI-H226 lung
HT29 colon = test system: HT29 colon
HCT-116 colon = test system: HCT-116 colon
SR leukemia = test system: SR leukemia
IGROV1 ovarian = test system: IGROV1 ovarian
MDA-MB-231 breast = test system: MDA-MB-231 breast
SW-620 colon = test system: SW-620 colon
SK-MEL-28 melanoma = test system: SK-MEL-28 melanoma
M14 melanoma = test system: M14 melanoma
UACC-257 melanoma = test system: UACC-257 melanoma
HCC-2998 colon = test system: HCC-2998 colon
NCI-H522 lung = test system: NCI-H522 lung
SNB-75 CNS = test system: SNB-75 CNS
SK-MEL-2 melanoma = test system: SK-MEL-2 melanoma
SF-268 CNS = test system: SF-268 CNS
UACC-62 melanoma = test system: UACC-62 melanoma
NCI-H23 lung = test system: NCI-H23 lung
HOP-62 NSCLC = test system: HOP-62 NSCLC
LOX IMVI melanoma = test system: LOX IMVI melanoma
BT-549 breast = test system: BT-549 breast
HL-60(TB) leukemia = test system: HL-60(TB) leukemia
SNB-19 CNS = test system: SNB-19 CNS
OVCAR-8 ovarian = test system: OVCAR-8 ovarian
HS 578T breast = test system: HS 578T breast
EKVX NSCLC = test system: EKVX NSCLC

`COc1ccc(CN2c3ccccc3Sc3ccccc32)c(F)c1` was tested, and the GI50 (KM12 colon) was 0.0432 µM, the TGI (KM12 colon) was > 100 µM and the GI50 (HCT-15 colon) was 0.0379 µM. For the same molecule, the TGI (HCT-15 colon) was > 100 µM, the GI50 (MCF7 breast) was 0.0327 µM and the TGI (MCF7 breast) was > 100 µM. The GI50 (K-562 leukemia) was 0.038 µM, the TGI (K-562 leukemia) was > 100 µM and the GI50 (OVCAR-5 ovarian) was 4.39 µM. The TGI (OVCAR-5 ovarian) was > 100 µM, the GI50 (SN12C renal) was 10.6 µM and the TGI (SN12C renal) was > 100 µM. The GI50 (NCI-H226 lung) was 13 µM, the TGI (NCI-H226 lung) was > 100 µM and the GI50 (HT29 colon) was 0.035 µM. For the same molecule, the TGI (HT29 colon) was > 100 µM, the GI50 (HCT-116 colon) was 0.0398 µM and the TGI (HCT-116 colon) was > 100 µM. The GI50 (SR leukemia) was 0.0596 µM, the TGI (SR leukemia) was > 100 µM and the GI50 (IGROV1 ovarian) was 4.56 µM. For the same molecule, the TGI (IGROV1 ovarian) was > 100 µM, the GI50 (MDA-MB-231 breast) was 5.09 µM and the TGI (MDA-MB-231 breast) was > 100 µM. The GI50 (SW-620 colon) was 0.0363 µM, the TGI (SW-620 colon) was > 100 µM and the GI50 (SK-MEL-28 melanoma) was 5.05 µM. The TGI (SK-MEL-28 melanoma) was > 100 µM, the GI50 (M14 melanoma) was 0.0381 µM and the TGI (M14 melanoma) was > 100 µM. For the same molecule, the GI50 (UACC-257 melanoma) was > 100 µM, the TGI (UACC-257 melanoma) was > 100 µM and the GI50 (HCC-2998 colon) was 5.06 µM. The TGI (HCC-2998 colon) was > 100 µM.

`COc1ccc2[nH]c(O)c(N=NC(=O)c3oc4ccccc4c3C)c2c1` was tested, and the GI50 (NCI-H522 lung) was 6.07 µM, the TGI (NCI-H522 lung) was > 100 µM and the GI50 (SNB-75 CNS) was 1.25 µM. The TGI (SNB-75 CNS) was 2.75 µM, the GI50 (SK-MEL-2 melanoma) was 2.56 µM and the TGI (SK-MEL-2 melanoma) was 6.62 µM. The GI50 (SF-268 CNS) was 5.18 µM, the TGI (SF-268 CNS) was 56.8 µM and the GI50 (UACC-62 melanoma) was 5.19 µM. For the same molecule, the TGI (UACC-62 melanoma) was > 100 µM, the GI50 (SN12C renal) was 2.82 µM and the TGI (SN12C renal) was > 100 µM. It also gave a GI50 (NCI-H23 lung) of 1.86 µM, a TGI (NCI-H23 lung) of 4.43 µM and a GI50 (HOP-62 NSCLC) of 1.92 µM. For the same molecule, the TGI (HOP-62 NSCLC) was 4.02 µM, the GI50 (LOX IMVI melanoma) was 3.16 µM and the TGI (LOX IMVI melanoma) was > 100 µM. The GI50 (BT-549 breast) was 5.38 µM, the TGI (BT-549 breast) was 33.7 µM and the GI50 (HL-60(TB) leukemia) was > 100 µM. For the same molecule, the TGI (HL-60(TB) leukemia) was > 100 µM, the GI50 (MDA-MB-231 breast) was 2.07 µM and the TGI (MDA-MB-231 breast) was 5.1 µM. For the same molecule, the GI50 (SNB-19 CNS) was 3.45 µM, the TGI (SNB-19 CNS) was 16.2 µM and the GI50 (OVCAR-8 ovarian) was 3.22 µM. For the same molecule, the TGI (OVCAR-8 ovarian) was > 100 µM, the GI50 (HS 578T breast) was 2.41 µM and the TGI (HS 578T breast) was 7.72 µM. The GI50 (EKVX NSCLC) was 2.94 µM and the TGI (EKVX NSCLC) was > 100 µM.
